Test results as given in ChEMBL document CHEMBL1201862, “PubChem BioAssay data set” (2004).
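Step 1: Grow cells in 96-well plates. Step 2: Expose to compound for 48 hours at 5 concentrations. Step 3: Interpolate endpoints linearly; if unreached, use highest concentration. GI50 marks 50% less growth.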 Calls of active or inactive are those of the source. Cut-off read from the data, not from the text of the source: active = GI50 up to about 1.1 µM and inactive = higher.

Key:
Experiment in all cases: NCI-60 cell line screen, 48 h
[1] = test system: OVCAR-4
[2] = test system: HCT-15
[3] = test system: SW-620
[4] = test system: SNB-19
[5] = test system: Hs-578T
[6] = test system: HCT-116
[7] = test system: HL-60
[8] = test system: BT-549
[9] = test system: NCI/ADR-RES
[10] = test system: PC-3
[11] = test system: 786-0
[12] = test system: DU-145
[13] = test system: TK-10
[14] = test system: HOP-92
[15] = test system: CAKI-1
[16] = test system: SNB-75
[17] = test system: COLO 205
[18] = test system: OVCAR-3
[19] = test system: EKVX
[20] = test system: MDA-MB-231
[21] = test system: SR
[22] = test system: LXFL 529
[23] = test system: MDA-N
[24] = test system: M19-MEL
[25] = test system: T47D
[26] = test system: A549
[27] = test system: DMS-273
[28] = test system: HOP-18
[29] = test system: UACC-257
[30] = test system: MDA-MB-435
[31] = test system: Malme-3M
[32] = test system: RXF 393
[33] = test system: SN12C
[34] = test system: LOX IMVI
[35] = test system: KM12
[36] = test system: SF-295
[37] = test system: SK-OV-3
[38] = test system: MOLT-4
[39] = test system: UACC-62
[40] = test system: ACHN
[41] = test system: K562
[42] = test system: SK-MEL-2
[43] = test system: DMS-114
[44] = test system: SNB-78
[45] = test system: NCI-H460
[46] = test system: A498
[47] = test system: HOP-62
[48] = test system: RPMI-8226
[49] = test system: OVCAR-8
[50] = test system: SF-539
[51] = test system: NCI-H226
[52] = test system: IGROV-1
[53] = test system: HCC 2998
[54] = test system: M14
[55] = test system: NCI-H23
[56] = test system: SK-MEL-5
[57] = test system: CCRF-CEM
[58] = test system: MCF7
[59] = test system: UO-31
[60] = test system: U-251
[61] = test system: SK-MEL-28
[62] = test system: KM-20L2
[63] = test system: HT-29
[64] = test system: OVCAR-5
[65] = test system: SF-268

Question: Which results are given for Cc1cc(O)nc(NN2C(Cl)C(=O)C2c2ccc(Cl)cc2)n1 (stereo not given)?
Answer: GI50 [1]: 22.9 µM (inactive); GI50 [2]: 15.1 µM; GI50 [3]: 22.5 µM (inactive); GI50 [4]: 19.4 µM (inactive); GI50 [5]: 30 µM (inactive); GI50 [6]: 11.3 µM (inactive); GI50 [7]: 3.18 µM (inactive); GI50 [8]: 20.5 µM (inactive); GI50 [9]: 20.7 µM (inactive); GI50 [10]: 32.7 µM (inactive); GI50 [11]: 15.6 µM (inactive); GI50 [12]: 23.3 µM (inactive); GI50 [13]: 19.8 µM (inactive); GI50 [14]: 12.9 µM (inactive); GI50 [15]: 15.7 µM (inactive); GI50 [16]: 17.4 µM (inactive); GI50 [17]: 17.2 µM (inactive); GI50 [18]: 13.6 µM (inactive); GI50 [19]: 16.6 µM (inactive); GI50 [20]: 26.4 µM (inactive); GI50 [21]: 1.27 µM (inactive); GI50 [22]: 5.86 µM (inactive); GI50 [23]: 8.53 µM (inactive); GI50 [24]: 17.7 µM (inactive); GI50 [25]: 16.6 µM (inactive); GI50 [26]: 26.3 µM (inactive); GI50 [27]: 11.9 µM (inactive); GI50 [28]: 8.55 µM (inactive); GI50 [29]: 21.6 µM (inactive); GI50 [30]: 23.4 µM (inactive); GI50 [31]: 16.8 µM (inactive); GI50 [32]: 17.4 µM (inactive); GI50 [33]: 16.7 µM (inactive); GI50 [34]: 4.15 µM (inactive); GI50 [35]: 10.6 µM (inactive); GI50 [36]: 8.61 µM (inactive); GI50 [37]: 41.8 µM (inactive); GI50 [38]: 6.65 µM (inactive); GI50 [39]: 16.7 µM (inactive); GI50 [40]: 23 µM (inactive); GI50 [41]: 2.88 µM (inactive); GI50 [42]: 19.3 µM (inactive); GI50 [43]: 13.5 µM (inactive); GI50 [44]: 17.9 µM (inactive); GI50 [45]: 16.4 µM (inactive); GI50 [46]: 18.2 µM (inactive); GI50 [47]: 19.6 µM (inactive); GI50 [48]: 8.55 µM (inactive); GI50 [49]: 19.1 µM (inactive); GI50 [50]: 16.3 µM (inactive); GI50 [51]: 11.9 µM (inactive); GI50 [52]: 3.61 µM (inactive); GI50 [53]: 17 µM (inactive); GI50 [54]: 13.4 µM (inactive); GI50 [55]: 15.8 µM (inactive); GI50 [56]: 12.8 µM (inactive); GI50 [57]: 1.87 µM (inactive); GI50 [58]: 12.8 µM (inactive); GI50 [59]: 25.6 µM (inactive); GI50 [60]: 20.5 µM (inactive); GI50 [61]: 18.2 µM (inactive); GI50 [62]: 20.6 µM (inactive); GI50 [63]: 18 µM (inactive); GI50 [64]: 40 µM (inactive); GI50 [65]: 19.8 µM (inactive)
